{"source": "patent US7678390B2", "about": "“Carbon monoxide as a biomarker and therapeutic agent” (priority 1999, dated 2010)", "test_system": "IL-10(−/−) null mice given LPS", "test": "LPS-induced serum TNF-α in IL-10(-/-) null mice", "type": "in vivo", "settings": "Mus musculus, IL-10(−/−) mice, CO 250 ppm, 1 h, read-out: inhibition of serum TNF-α levels", "from_the_text": "Animals. Male C57BL/6 and IL-10 (−/−) mice were purchased from Jackson Laboratory (Bar Harbor, Me.), and allowed to acclimate for one week with rodent chow and water ad libitum. The MKK (−/−) mice were generated as previously described [Lu, et al., EMBO J. 18:1845-1857 (1999)]. Wild type littermates were used as controls. All animals were housed in accordance with guidelines from the American Association for Laboratory Animal Care and Research Protocols and were approved by the Animal Care and Use Committee of Yale University School of Medicine. Reagents. All reagents were purchased from Sigma Chemical Co. (St Louis, Mo.) unless specified otherwise. Plasmid Construct. Plasmid pSFFV/HO-1 was constructed by insertion of the rat HO-1 cDNA [Shibahara, et al., Proc. Natl. Acad. Sci. USA. 82: 7865-7869 (1985)] downstream of the Friend spleen focus-forming virus 5′ long-terminal repeat in the mammalian expression vector pSFFV/neo [Fuhlbrigge, et al, Proc. Natl. Acad. Sci. USA. 85: 5649-5653 (1988)] (kindly provided by Stanley Korsmeyer). Transfection. […] Gas samples were taken by the analyzer through a port in the top of the chambers at a rate of 1 L/min and analyzed by electrochemical detection, with a sensitivity of 10-600 ppm. Concentration levels were measured hourly and there were no fluctuations in the CO concentrations once the chamber had equilibrated (approximately 5 min). […]"}
{"smiles": "[C-]#[O+]", "note": "[CO, carbon monoxide]", "values": [{"measurement": "inhibition at 250 ppm", "result": 66, "unit": "%"}]}
